Values joined by “and” are separate entries in the source; they are usually repeats but may differ in a detail not shown here. Equal values may be shown once.
Tests used:
BRD4(1,2) = BRD4(1,2) (Homo sapiens (Human), UniProt O60885); test: HTRF binding of compounds on BRD4 (D1+D2); conditions: read-out: IC50 against BRD4(1,2)
Text: (§1) Homogeneous time-resolved fluorescence technology (HTRF) was used to determine the binding effect of compounds on BRD4 (D1+D2) and BRDT (D1) proteins, as well as AlphaScreen method was used to detect the binding effect of compounds on BRD2 (D1+D2) and BRD3 (D1+D2) proteins.
(§2) The compounds were screened in vitro, and each compound was serially diluted to 10 concentrations. Four proteins BRD4 (D1+D2), BRDT (D1), BRD2 (D1+D2) and BRD3 (D1+D2) were chosen to determine the IC50 values of compounds (see Table 1).
(§3) 4. Compound treatment: The test compound was dissolved in dimethyl sulfoxide (DMSO), and the storage concentration was 10 mM.
(§4) 5. Steps for Homogeneous Time-Resolved Fluorescence Detection:
(§5) 1) According to the arrangement of the detection plate, all compounds were diluted in Echo plate.
(§6) The final dilution concentration of DMSO is 0.1%.
(§7) 2) The compound or DMSO was transferred to a 384-well detection plate with the Echo automatic sampler.
(§8) 3) Two-fold concentration of the mixture of protein and peptide was added to the detection plate.
(§9) 4) Two-fold concentration of mixed detection solution was added to the test plate, and shaken for 30 s.
(§10) 5) Incubating for 2 h at room temperature.
(§11) 6) Fluorescence signal was read on Envision multi-function microplate reader (excitation light wavelength being 340 nm, and emission light wavelength being 615 nm and 665 nm).
(§12) The experimental data were recorded in an Excel file, and equation (1) was used to obtain the inhibition rate. Inh%=(Max−Signal)/(Max−Min)*100 Equation (1):
(§13) The obtained data was recorded in GraphPad software, and equation (2) was used to provide the IC50 values. Y=Bottom+(Top−Bottom)/(1+10^((Log IC50−X)*Hill Slope)) Equation (2): […]
(§14) Y axis was the inhibition rate, and X axis was the compound concentration.

BRD2(1,2) = BRD2(1,2) (Homo sapiens (Human), UniProt P25440); test: AlphaScreen binding of compounds on BRD2 (D1+D2); conditions: read-out: IC50 against BRD2(1,2)
Sequence of BRD2(1,2) (P25440 65-459): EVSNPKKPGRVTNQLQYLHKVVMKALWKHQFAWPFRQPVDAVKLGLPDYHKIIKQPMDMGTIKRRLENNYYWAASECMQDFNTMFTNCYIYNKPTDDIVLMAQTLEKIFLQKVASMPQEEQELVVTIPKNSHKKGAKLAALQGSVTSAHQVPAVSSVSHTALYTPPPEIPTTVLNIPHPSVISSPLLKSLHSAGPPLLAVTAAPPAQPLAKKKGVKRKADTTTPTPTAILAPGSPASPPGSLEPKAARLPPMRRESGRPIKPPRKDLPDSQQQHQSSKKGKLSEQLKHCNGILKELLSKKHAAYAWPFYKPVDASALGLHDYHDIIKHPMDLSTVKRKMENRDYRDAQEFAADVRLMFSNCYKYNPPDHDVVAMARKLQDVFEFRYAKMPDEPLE
Text: as §1, §2, §3
(§15) 6. AlphaScreen Detection Procedures:
(§16) 1) Preparing One-Fold Concentration of Detection Buffer
(§17) One-fold concentration of detection buffer was prepared (Improved HEPES buffer)
(§18) 2) Gradient Dilution of Compounds
(§19) Echo automatic sampler was used to transfer the compound to the detection plate for gradient dilution, so that the final concentration of dimethyl sulfoxide was 0.1%.
(§20) 3) Preparation of Protein Solution
(§21) The protein was dissolved in one-fold concentration of detection buffer.
(§22) 4) Preparation of Substrate Solution
(§23) The peptide was dissolved in one-fold concentration of detection buffer to prepare the substrate solution.
(§24) 5) 5 μL protein solution was transferred to the detection plate, and one-fold concentration of detection buffer (5 μL) was placed in the negative control wells.
(§25) 6) The plate was incubated for 15 min at room temperature.
(§26) 7) 5 μL substrate solution was added to each well to start the reaction.
(§27) 8) The plate was incubated for additional 60 min at room temperature.
(§28) 9) Preparation of acceptor solution and donor solution in one-fold concentration of assay buffer Acceptor solution (15 μL) and donor solution (15 μL) were respectively added, and then incubated at room temperature for 60 min and protected against exposure to light.
(§29) 10) The endpoint was read in EnSpire and Alpha mode.
(§30) The experimental data were recorded in an Excel file and equation (1) was used to get the inhibition rate. Inh%=(Max−Signal)/(Max−Min)*100 Equation (1):
(§31) The obtained data were input into GraphPad software, and equation (2) was used to obtain the IC50 value. Y=Bottom+(Top−Bottom)/(1+10^((Log IC50−X)*Hill Slope)) Formula (2): […]
(§32) Wherein, Y axis was the inhibition rate, and the X axis was the compound concentration.

BRDT(D1) = BRDT(D1) (Homo sapiens (Human), UniProt Q58F21); test: HTRF binding of compounds on BRDT (D1); conditions: read-out: IC50 against BRDT(D1)
Text: as §1, §2, §3, §4, §5, §6, §7, §8, §9, §10, §11, §12, §13, §14

CWR22RV1 cells = test: Inhibition of proliferation of CWR22RV1 cells (CCK-8); format: cell-based, human; conditions: Homo sapiens, CWR22Rv1, 144 h, 6 days
In short: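 Cells seeded at 1500/well, cultured overnight, then exposed to compounds in 3-fold dilutions (9 concentrations from 10 μM top final, 0.1% DMSO) for 6 days at 37 °C. Viability read by CCK-8 absorbance at 450 nm after 2.5 h; IC50 from dose-response inhibition fit.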

BRD3(1,2) = BRD3(1,2) (Homo sapiens (Human), UniProt Q15059); test: AlphaScreen binding of compounds on BRD3 (D1+D2); conditions: read-out: IC50 against BRD3(1,2)
Sequence of BRD3(1,2) (Q15059 29-417): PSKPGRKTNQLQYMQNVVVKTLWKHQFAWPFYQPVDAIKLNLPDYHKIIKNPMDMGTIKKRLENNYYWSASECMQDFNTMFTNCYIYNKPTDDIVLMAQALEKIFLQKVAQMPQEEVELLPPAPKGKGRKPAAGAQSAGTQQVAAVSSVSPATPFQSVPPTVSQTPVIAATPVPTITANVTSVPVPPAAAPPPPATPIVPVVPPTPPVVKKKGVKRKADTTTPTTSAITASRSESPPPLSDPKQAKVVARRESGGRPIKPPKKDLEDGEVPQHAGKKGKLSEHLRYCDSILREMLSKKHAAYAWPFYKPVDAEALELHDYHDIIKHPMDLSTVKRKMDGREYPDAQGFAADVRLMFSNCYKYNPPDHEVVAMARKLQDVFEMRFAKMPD
Text: as §1, §2, §3, §15, §16, §17, §18, §19, §20, §21, §22, §23, §24, §25, §26, §27, §28, §29, §30, §31, §32

Row | SMILES | IC50 (BRD4(1,2)) | IC50 (BRD2(1,2)) | IC50 (BRDT(D1)) | IC50 (CWR22RV1 cells) [nM] | IC50 (BRD3(1,2))
1 | [2H]C([2H])([2H])n1cc(-c2cc(S(C)(=O)=O)ccc2N2CCC3(CC2)CC3)c2cc[nH]c2c1=O [Compound 56, 6-trideuteromethyl-4-(5(methylsulfonyl)-2-(6-aza-spiro[2.5]octan-6-yl)phenyl)-1H-pyrrolo[2,3-c]pyridin-7(6H)-one] | 7.1 nM | 1.1 nM | 21 nM | 3 | 4.3 nM
2 | CCS(=O)(=O)Nc1ccc(N2CCC3(CC2)CC3(F)F)c(-c2cn(C)c(=O)c3[nH]ccc23)c1 [Compound 193, N-(4-(1,1-difluoro-6-aza-spiro[2.5]octan-6-yl)-3-(6-methyl-7-oxo-6,7-dihydro-1H-pyrrolo[2,3-c]pyridin-4-yl)phenyl)ethanesulfonamide] | 14 nM | 2.7 nM | 32 nM | 4 | 5.8 nM
3 | [2H]C([2H])([2H])n1cc(-c2cc(S(=O)(=O)NC)ccc2N2CCC3(CC2)CC3)c2cc[nH]c2c1=O [Compound 202, N-methyl-3-(6-trideuteromethyl-7-oxo-6,7-dihydro-1H-pyrrolo [2,3-c]pyridin-4-yl)-4-(6-aza-spiro[2.5]octan-6-yl)benzenesulfonamide] | 5.1 nM | 1.6 nM | 16 nM | 0.5 | 4.5 nM
4 | [2H]C([2H])([2H])n1cc(-c2cc(S(=O)(=O)N(C)C)ccc2N2CCC3(CC2)CC3(F)F)c2cc[nH]c2c1=O [Compound 204, 4-(1,1-difluoro-6-aza-spiro[2.5]octan-6-yl)-N,N-dimethyl-3-(6-trideuteromethyl-7-oxo-6,7-dihydro-1H-pyrrolo[2,3-c]pyridin-4-yl)benzenesulfonamide] | 10 nM | 6.5 nM | 19 nM | 0.7 | 7.4 nM
5 | [2H]C([2H])([2H])n1cc(-c2cc(S(=O)(=O)NC)cnc2N2CCC3(CC2)CC3(F)F)c2cc[nH]c2c1=O [Compound 212, 6-(1,1-difluoro-6-aza-spiro[2.5]octan-6-yl)-N-methyl-5-(6-trideuteromethyl-7-oxo-6,7-dihydro-1H-pyrrolo[2,3-c]pyridin-4-yl)pyridin-3-sulfonamide] | 4.3 nM | 1.7 nM | 13 nM | – | 4.6 nM
6 | [2H]C([2H])([2H])NS(=O)(=O)c1cnc(N2CCC3(CC2)CC3(F)F)c(-c2cn(C([2H])([2H])[2H])c(=O)c3[nH]ccc23)c1 [Compound 213, 6-(1,1-difluoro-6-aza-spiro[2.5]octan-6-yl)-N-trideuteromethyl-5-(6-trideuteromethyl-7-oxo-6,7-dihydro-1H-pyrrolo[2,3-c]pyridin-4-yl) pyridin-3-sulfonamide] | 4.1 nM | 1.6 nM | 15 nM | – | 4.4 nM
7 | [2H]C([2H])([2H])n1cc(-c2cc(S(=O)(=O)CC)cnc2N2CCC3(CC2)CC3(F)F)c2cc[nH]c2c1=O [Compound 215, 4-(2-(1,1-difluoro-6-aza-spiro[2.5]octan-6-yl)-5-(ethylsulfonyl)pyridin-3-yl)-6-trideuteromethyl-1H-pyrrolo[2,3-c]pyridin-7(6H)-one] | 5.3 nM | 2.9 nM | 16 nM | – | 5 nM
8 | [2H]C([2H])([2H])n1cc(-c2cc(S(N)(=O)=O)c(F)cc2N2CCC3(CC2)CC3(F)F)c2cc[nH]c2c1=O [Compound 217, 4-(1,1-difluoro-6-aza-spiro[2.5]octan-6-yl)-2-fluoro-5-(6-trideuteromethyl-7-oxo-6,7-dihydro-1H-pyrrolo[2,3-c]pyridin-4-yl)benzenesulfonamide] | 6.2 nM and 4.9 nM | 1.4 nM and 1.5 nM | 20 nM and 19 nM | – | 4.9 nM and 4.5 nM
9 | [2H]C([2H])([2H])n1cc(-c2cc(S(=O)(=O)C(C)(C)C(=O)O)ccc2N2CCC3(CC2)CC3(F)F)c2cc[nH]c2c1=O [Compound 239, 2-((4-(1,1-difluoro-6-aza-spiro[2.5]octan-6-yl)-3-(6-trideuteromethyl-7-oxo-6,7-dihydro-1H-pyrrolo[2,3-c]pyridin-4-yl)phenyl)sulfonyl)-2-methylpropionic acid] | 14 nM | 3 nM | 18 nM | 7.8 | 5.2 nM
10 | [2H]C([2H])([2H])n1cc(-c2cc(S(=O)(=O)N3CCCC3C(=O)O)ccc2N2CCC3(CC2)CC3(F)F)c2cc[nH]c2c1=O (stereo not shown) [Compound 244, 1-((4-(1,1-difluoro-6-aza-spiro[2.5]octan-6-yl)-3-(6-trideuteromethyl-7-oxo-6,7-dihydro-1H-pyrrolo[2,3-c]pyridin-4-yl)phenyl)sulfonyl)pyrrolidin-2-carboxylic acid] | – | – | – | 81 | –
11 | Cn1cc(-c2cc(N)ccc2N2CCC3(CC2)CC3)c2cc[nH]c2c1=O [Compound 245, 4-(5-amino-2-(6-aza-spiro[2.5]octan-6-yl)phenyl)-6-methyl-1H-pyrrolo[2,3-c]pyridin-7(6H)-one] | – | – | – | 230 | –
12 | Cn1cc(-c2cc(NS(C)(=O)=O)ccc2N2CCC3(CC3)C2)c2cc[nH]c2c1=O [Compound 246, N-(3-(6-methyl-7-oxo-6,7-dihydro-1H-pyrrolo[2,3-c]pyridin-4-yl)-4-(5-aza-spiro[2.4]heptan-5-yl)phenyl)methanesulfonamide] | – | – | – | 30 | –
13 | Cn1cc(-c2cc(NC(=O)CCC(=O)O)ccc2N2CCC3(CC2)CC3)c2cc[nH]c2c1=O [Compound 247, 4-((3-(6-methyl-7-oxo-6,7-dihydro-1H-pyrrolo[2,3-c]pyridin-4-yl)-4-(6-aza-spiro[2.5]octan-6-yl)phenyl)amino)-4-oxobutyric acid] | – | – | – | 670 | –
14 | Cn1cc(-c2cc(S(C)(=O)=O)ccc2N2CCCC2C(=O)O)c2cc[nH]c2c1=O (stereo not shown) [Compound 248, 1-(2-(6-methyl-7-oxo-6,7-dihydro-1H-pyrrolo[2,3-c]pyridin-4-yl)-4-(methanesulfonyl)phenyl)pyrrolidin-2-carboxylic acid] | – | – | – | 7000 | –
15 | Cn1cc(-c2cc(S(C)(=O)=O)ccc2N2CCCC2CCl)c2cc[nH]c2c1=O (stereo not shown) [Compound 249, 4-(2-(2-(chloromethyl)pyrrolidin-1-yl)-5-(methanesulfonyl)phenyl)-6-methyl-1H-pyrrolo[2,3-c]pyridin-7(6H)-one] | – | – | – | 130 | –
16 | [2H]C([2H])([2H])n1cc(-c2cc(S(N)(=O)=O)ccc2N2CCC3(CC2)CC3(F)F)c2cc[nH]c2c1=O [Compound 251, 4-(1,1-difluoro-6-aza-spiro[2.5]octan-6-yl)-3-(6-trideuteromethyl-7-oxo-6,7-dihydro-1H-pyrrolo[2,3-c]pyridin-4-yl)benzenesulfonamide] | 3.4 nM | 1.2 nM | 13 nM | – | 3.9 nM
17 | [2H]C([2H])([2H])n1cc(-c2cc(S(=O)(=O)N3C[C@H](O)C[C@H]3C(=O)O)ccc2N2CCC3(CC2)CC3(F)F)c2cc[nH]c2c1=O [Compound 252, (2S,4R)-1-((4-(1,1-difluoro-6-aza-spiro[2.5]octan-6-yl)-3-(6-trideuteromethyl-7-oxo-6,7-dihydro-1H-pyrrolo[2,3-c]pyridin-4-yl)phenyl)sulfonyl)-4-hydroxylpyrrolidin-2-carboxylic acid] | 680 nM | 160 nM | 830 nM | – | 240 nM
